# Results: PubChem BioAssay AID2060912 (Molecular Pharmacology Branch, DTP, NCI, 2025)
# Tested on: HUVEC/MSC spheroids viability
# Assay: Human HUVEC/MSC cell line growth inhibition [KRAS2];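 as to viability, T/C: percent of DMSO vehicle control luminescence so 100% = untreated viability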
# Conditions: for viability, T/C: stronger effect = lower value
# Method in brief: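 HUVEC + hMSC stromal spheroids only, no malignant cells; 37 °C, 5% CO2. Drugs singly and in pairs, half-log series down from clinical Cmax (max 10 microM if Cmax undetermined).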
# [1] = curve of first compound, second compound 0.0316 µM
# [2] = curve of first compound, second compound 0.1 µM
# [3] = curve of first compound, second compound 0.316 µM
# [4] = curve of first compound, second compound 1 µM
# [5] = curve of first compound, second compound 3.16 µM
# [6] = curve of first compound, second compound 10 µM
# [7] = second compound 0.0316 µM, first compound 0.000316 µM
# [8] = second compound 0.0316 µM, first compound 0.001 µM
# [9] = second compound 0.0316 µM, first compound 0.00316 µM
# [10] = second compound 0.0316 µM, first compound 0.01 µM
# [11] = second compound 0.0316 µM, first compound 0.0316 µM
# [12] = second compound 0.0316 µM, first compound 0.1 µM
# [13] = second compound 0.1 µM, first compound 0.000316 µM
# [14] = second compound 0.1 µM, first compound 0.001 µM
# [15] = second compound 0.1 µM, first compound 0.00316 µM
# [16] = second compound 0.1 µM, first compound 0.01 µM
# [17] = second compound 0.1 µM, first compound 0.0316 µM
# [18] = second compound 0.1 µM, first compound 0.1 µM
# [19] = second compound 0.316 µM, first compound 0.000316 µM
# [20] = second compound 0.316 µM, first compound 0.001 µM
# [21] = second compound 0.316 µM, first compound 0.00316 µM
# [22] = second compound 0.316 µM, first compound 0.01 µM
# [23] = second compound 0.316 µM, first compound 0.0316 µM
# [24] = second compound 0.316 µM, first compound 0.1 µM
# [25] = second compound 1 µM, first compound 0.000316 µM
# [26] = second compound 1 µM, first compound 0.001 µM
# [27] = second compound 1 µM, first compound 0.00316 µM
# [28] = second compound 1 µM, first compound 0.01 µM
# [29] = second compound 1 µM, first compound 0.0316 µM
# [30] = second compound 1 µM, first compound 0.1 µM
# [31] = second compound 3.16 µM, first compound 0.000316 µM
# [32] = second compound 3.16 µM, first compound 0.001 µM
# [33] = second compound 3.16 µM, first compound 0.00316 µM
# [34] = second compound 3.16 µM, first compound 0.01 µM
# [35] = second compound 3.16 µM, first compound 0.0316 µM
# [36] = second compound 3.16 µM, first compound 0.1 µM
# [37] = second compound 10 µM, first compound 0.000316 µM
# [38] = second compound 10 µM, first compound 0.001 µM
# [39] = second compound 10 µM, first compound 0.00316 µM
# [40] = second compound 10 µM, first compound 0.01 µM
# [41] = second compound 10 µM, first compound 0.0316 µM
# [42] = second compound 10 µM, first compound 0.1 µM
smiles,measurement,setting,value
CN(C)C/C=C/C(=O)Nc1cc2c(Nc3ccc(F)c(Cl)c3)ncnc2cc1O[C@H]1CCOC1 + C=CC(=O)N1CCN(c2nc(=O)n(-c3c(C)ccnc3C(C)C)c3nc(-c4c(O)cccc4F)c(F)cc23)C(C)C1,IC50,[1],> 100 nM
same,IC50,[2],> 100 nM
same,IC50,[3],> 100 nM
same,IC50,[4],> 100 nM
same,IC50,[5],> 100 nM
same,IC50,[6],> 100 nM
same,"viability, T/C",[7],98.4%
same,"viability, T/C",[8],115%
same,"viability, T/C",[9],97%
same,"viability, T/C",[10],84.3%
same,"viability, T/C",[11],91.4%
same,"viability, T/C",[12],88.9%
same,"viability, T/C",[13],116%
same,"viability, T/C",[14],107%
same,"viability, T/C",[15],85.7%
same,"viability, T/C",[16],80.1%
same,"viability, T/C",[17],111%
same,"viability, T/C",[18],81%
same,"viability, T/C",[19],108%
same,"viability, T/C",[20],109%
same,"viability, T/C",[21],87.3%
same,"viability, T/C",[22],92.8%
same,"viability, T/C",[23],96.8%
same,"viability, T/C",[24],100%
same,"viability, T/C",[25],107%
same,"viability, T/C",[26],119%
same,"viability, T/C",[27],105%
same,"viability, T/C",[28],124%
same,"viability, T/C",[29],112%
same,"viability, T/C",[30],110%
same,"viability, T/C",[31],107%
same,"viability, T/C",[32],129%
same,"viability, T/C",[33],114%
same,"viability, T/C",[34],118%
same,"viability, T/C",[35],113%
same,"viability, T/C",[36],131%
same,"viability, T/C",[37],128%
same,"viability, T/C",[38],122%
same,"viability, T/C",[39],145%
same,"viability, T/C",[40],97.3%
same,"viability, T/C",[41],124%
same,"viability, T/C",[42],106%
O=C(c1cc(Cc2n[nH]c(=O)c3ccccc23)ccc1F)N1CCN(C(=O)C2CC2)CC1 + C=CC(=O)N1CCN(c2nc(=O)n(-c3c(C)ccnc3C(C)C)c3nc(-c4c(O)cccc4F)c(F)cc23)C(C)C1,IC50,[1],> 10000 nM
same,IC50,[2],> 10000 nM
same,IC50,[3],> 10000 nM
same,IC50,[4],> 10000 nM
same,IC50,[5],> 10000 nM
same,IC50,[6],> 10000 nM
same,"viability, T/C",[11],104%
same,"viability, T/C",[12],109%
same,"viability, T/C","second compound 0.0316 µM, first compound 0.316 µM",125%
same,"viability, T/C","second compound 0.0316 µM, first compound 1 µM",85.1%
same,"viability, T/C","second compound 0.0316 µM, first compound 3.16 µM",95%
same,"viability, T/C","second compound 0.0316 µM, first compound 10 µM",104%
same,"viability, T/C",[17],114%
same,"viability, T/C",[18],107%
same,"viability, T/C","second compound 0.1 µM, first compound 0.316 µM",95.3%
same,"viability, T/C","second compound 0.1 µM, first compound 1 µM",107%
same,"viability, T/C","second compound 0.1 µM, first compound 3.16 µM",133%
same,"viability, T/C","second compound 0.1 µM, first compound 10 µM",99.2%
same,"viability, T/C",[23],112%
same,"viability, T/C",[24],122%
same,"viability, T/C","second compound 0.316 µM, first compound 0.316 µM",98.2%
same,"viability, T/C","second compound 0.316 µM, first compound 1 µM",114%
same,"viability, T/C","second compound 0.316 µM, first compound 3.16 µM",115%
same,"viability, T/C","second compound 0.316 µM, first compound 10 µM",105%
same,"viability, T/C",[29],128%
same,"viability, T/C",[30],104%
same,"viability, T/C","second compound 1 µM, first compound 0.316 µM",124%
same,"viability, T/C","second compound 1 µM, first compound 1 µM",120%
same,"viability, T/C","second compound 1 µM, first compound 3.16 µM",126%
same,"viability, T/C","second compound 1 µM, first compound 10 µM",118%
same,"viability, T/C",[35],148%
same,"viability, T/C",[36],118%
same,"viability, T/C","second compound 3.16 µM, first compound 0.316 µM",146%
same,"viability, T/C","second compound 3.16 µM, first compound 1 µM",137%
same,"viability, T/C","second compound 3.16 µM, first compound 3.16 µM",116%
same,"viability, T/C","second compound 3.16 µM, first compound 10 µM",125%
same,"viability, T/C",[41],127%
same,"viability, T/C",[42],140%
same,"viability, T/C","second compound 10 µM, first compound 0.316 µM",145%
same,"viability, T/C","second compound 10 µM, first compound 1 µM",108%
same,"viability, T/C","second compound 10 µM, first compound 3.16 µM",126%
same,"viability, T/C","second compound 10 µM, first compound 10 µM",120%
CC(C)n1nc(-c2ccc3oc(N)nc3c2)c2c(N)ncnc21 + C=CC(=O)N1CCN(c2nc(=O)n(-c3c(C)ccnc3C(C)C)c3nc(-c4c(O)cccc4F)c(F)cc23)C(C)C1,IC50,[1],3.06 nM
same,IC50,[2],9.63 nM
same,IC50,[3],100 nM
same,IC50,[4],> 100 nM
same,IC50,[5],> 100 nM
same,IC50,[6],> 100 nM
same,"viability, T/C",[7],88.3%
same,"viability, T/C",[8],76.4%
same,"viability, T/C",[9],48.8%
same,"viability, T/C",[10],49.7%
same,"viability, T/C",[11],43.2%
same,"viability, T/C",[12],44.1%
same,"viability, T/C",[13],88.7%
same,"viability, T/C",[14],59.8%
same,"viability, T/C",[15],63.4%
same,"viability, T/C",[16],48.5%
same,"viability, T/C",[17],50.4%
same,"viability, T/C",[18],36.2%
same,"viability, T/C",[19],79.4%
same,"viability, T/C",[20],86.6%
same,"viability, T/C",[21],53.5%
same,"viability, T/C",[22],52.5%
same,"viability, T/C",[23],64.4%
same,"viability, T/C",[24],50.6%
same,"viability, T/C",[25],94%
same,"viability, T/C",[26],73.1%
same,"viability, T/C",[27],65%
same,"viability, T/C",[28],51.9%
same,"viability, T/C",[29],65%
same,"viability, T/C",[30],53.5%
same,"viability, T/C",[31],86.2%
same,"viability, T/C",[32],74.9%
same,"viability, T/C",[33],66.6%
same,"viability, T/C",[34],60.6%
same,"viability, T/C",[35],62.3%
same,"viability, T/C",[36],56.4%
same,"viability, T/C",[37],75%
same,"viability, T/C",[38],67.4%
same,"viability, T/C",[39],72.9%
same,"viability, T/C",[40],76.3%
same,"viability, T/C",[41],60.4%
same,"viability, T/C",[42],54.9%
C=CC(=O)N1CCN(c2nc(OCC3CCCN3C)nc3c2CCN(c2cccc4cccc(C)c24)C3)CC1CC#N (stereo not given),"viability, T/C",compound 0.03 µM,94.9% [middle of 9 runs]
same,"viability, T/C",compound 0.949 µM,73.6% [middle of 9 runs]
same,"viability, T/C",compound 3 µM,80.8% [middle of 9 runs]
same,IC50,"compound alone, run of 05/05/2024",> 3000 nM
